From US20220204539A1, “CD73 INHIBITORS” (BioArdis LLC, priority 2019, published 2022)

What was measured:
[1] = target: T1, Recombinant Human 5′-Nucleotidase (CD73) (Homo sapiens, UniProt P21589); test: CD73 Enzyme Assay; type: biochemical; conditions: human CD73 0.5 nM, AMP 30 μM, PiColorLock phosphate detection; read-out: Potency (IC50, CD73 enzyme assay)
T1 construct: CHO derived CD73 (Trp27-Lys547), with a C-terminal 6-His tag; 6-His (C); purchased R&D 5795-EN; host or cells: CHO
T1 sequence (P21589 27-547): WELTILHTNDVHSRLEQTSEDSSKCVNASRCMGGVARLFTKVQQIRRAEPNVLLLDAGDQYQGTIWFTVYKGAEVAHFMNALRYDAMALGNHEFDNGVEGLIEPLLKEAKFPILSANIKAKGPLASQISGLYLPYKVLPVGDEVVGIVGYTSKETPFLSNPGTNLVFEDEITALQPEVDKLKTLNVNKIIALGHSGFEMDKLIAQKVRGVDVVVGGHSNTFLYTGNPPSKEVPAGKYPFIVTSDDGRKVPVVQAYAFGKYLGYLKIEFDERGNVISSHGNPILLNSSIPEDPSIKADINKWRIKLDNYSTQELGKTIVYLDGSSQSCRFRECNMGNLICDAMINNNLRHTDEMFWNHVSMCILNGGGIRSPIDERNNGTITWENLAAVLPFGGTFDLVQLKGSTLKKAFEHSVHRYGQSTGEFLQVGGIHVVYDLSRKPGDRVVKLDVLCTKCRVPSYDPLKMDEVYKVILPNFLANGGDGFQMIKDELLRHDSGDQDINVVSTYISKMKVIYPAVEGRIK
Text: Soluble recombinant CD73 catalyzes the conversion of adenosine monophosphate (AMP) to adenosine and inorganic phosphate. The phosphate detection reagent, PiColorLock™ (Innova Bioscience, Cat #303-0125) is based on the change in absorbance of the dye malachite green in the presence of inorganic phosphate (Pi) and this property can be exploited to measure any enzyme that generates Pi. Recombinant Human 5′-Nucleotidase (CD73) (R&D #5795-EN, CHO derived CD73 (Trp27-Lys547), with a C-terminal 6-His tag) was used in the enzymatic assay. This assay was run in a 384-well plate format (Corning® NBS™ 384 well plates, Cat #3640). The basic assay procedure involves two steps: 1) Enzyme reaction: The CD73 enzyme (R&D #5795-EN) is incubated in the presence or absence of compounds. AMP (sigma, cat #01930) is added to start the […] reaction. 2) Detection step: Gold mix is added to the assay system, then stabilizers are added. After incubation the absorbance of the solution is read at OD 635 nm. The recorded OD signal is proportional to the enzyme activity.
Briefly, 25 μl human CD73 (0.5 nM final concentration) in the enzymatic buffer solutions (20 mM Tris, 25 mM NaCl, 1 mM MgCl2, pH 7.5, 0.005% Tween-20) were mixed with various concentrations of the test compound (dissolved in 100% DMSO). These solutions were incubated for 15 min at 25° C., and subsequently 25 μl AMP (30 μM final concentration) was added to start the reaction. The final reaction mixture of enzyme-substrate-compound was incubated for 20 min at 37° C. Meanwhile ‘Gold mix’ was prepared shortly before use by adding 1/100 vol. of accelerator to the PiColorLock™ Gold reagent. 12 μL/well of the ‘Gold mix’ was added to assay plate containing 50 μL enzyme reaction buffer and incubated at 25° C. for 5 min. 5 μL/well stabilizer was added to the assay plate and incubated at 25° C. for 30 min. The absorbance of the well solutions was measured at 635 nm on a Spark 10M instrument (TECAN).
The percent (%) inhibition at each concentration of a compound was calculated relative to the OD value in the Max and Min control wells contained within each assay plate. The Max control wells contained enzyme and substrate as 0% inhibition, and the M control wells only contained substrate without enzyme as 100% inhibition. The concentrations and percent inhibition values for a test compound are plotted and the concentration of the compound required to achieve 50% inhibition (IC50) was determined with a four-parameter logistic dose response equation.

[2] = target: T2, Cell surface CD73 of U87 MG human glioblastoma cells (Homo sapiens, UniProt P21589); test: CD73 Cellular Assay; type: cell-based; conditions: 5000 cells per well, 30 μM AMP substrate, read-out: Potency (IC50, CD73 cellular assay)
T2 construct: Cell surface CD73 catalyzes the conversion of adenosine monophosphate (AMP) to adenosine and inorganic phosphate; endogenous in cells; host or cells: U87 MG human glioblastoma cells
T2 sequence (P21589 27-549): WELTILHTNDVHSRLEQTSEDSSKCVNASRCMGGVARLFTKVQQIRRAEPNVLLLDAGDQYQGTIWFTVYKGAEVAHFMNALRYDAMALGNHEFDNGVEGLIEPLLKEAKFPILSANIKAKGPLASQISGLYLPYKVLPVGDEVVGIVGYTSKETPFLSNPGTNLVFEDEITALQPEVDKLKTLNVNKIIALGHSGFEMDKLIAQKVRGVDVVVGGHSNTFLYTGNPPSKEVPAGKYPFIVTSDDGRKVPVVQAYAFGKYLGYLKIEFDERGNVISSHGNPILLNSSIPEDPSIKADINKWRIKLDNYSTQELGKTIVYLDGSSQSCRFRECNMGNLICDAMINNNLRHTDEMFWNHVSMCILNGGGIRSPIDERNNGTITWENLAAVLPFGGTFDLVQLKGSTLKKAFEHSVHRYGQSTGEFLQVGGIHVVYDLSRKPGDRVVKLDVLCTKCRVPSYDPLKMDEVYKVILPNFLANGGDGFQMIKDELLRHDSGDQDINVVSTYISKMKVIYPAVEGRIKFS
Experimental: Cell surface CD73 catalyzes the conversion of adenosine monophosphate (AMP) to adenosine and inorganic phosphate. U87 MG human glioblastoma cells express high level of CD73. Cells are treated with compounds in a 96-well assay plate and supernatants are collected into a 384-well detection plate. The concentration of inorganic phosphate (Pi) in the supernatants is determined using the phosphate detection reagent, PiColorLock™ (Innova Bioscience, Cat #303-0125) following the manufacturer's instructions.
Briefly, on the day of the assay, U87 MG cells were harvested and resuspended in assay buffer which consisted of 20 mM HEPES, pH=7.4, 137 mM NaCl, 5.4 mM KCl, 1.3 mM CaCl2, 4.2 mM NaHCO3 and 0.1% glucose. To test the effect of compounds on cellular CD73 enzymatic activity, 500 nL/well of compounds dissolved in DMSO were added to a 96-well TC-treated microplate (Corning #3599). Next, 80 μL/well of U87 MG cells in assay buffer were added to assay plate. After 30 minutes of incubation in an atmosphere of 5% CO2 at 37° C., 20 μL/well of 150 μM AMP (Adenosine 5′-monophosphate monohydrate, Sigma, Cat #01930) in assay buffer was added to assay plate. Final assay conditions consisted of 5000 cells per well in 0.5% DMSO and 30 μM AMP substrate. After 50 minutes of incubation in an atmosphere of 5% CO2 at 37° C., 50 μL/well of supernatant was transferred to the 384-well detection plate (Corning® NBS™ 384 well plates, Cat #3640). Meanwhile “Gold mix” was prepared shortly before use by adding 1/100 volume of accelerator to the PiColorLock™ Gold reagent. 12 μL/well of the “Gold mix” was added to detection plate containing 50 μL/well of supernatant and incubated at 25° C. for 5 minutes. 5 μL/well stabilizer was added to the detection plate and incubated at 25° C. for 30 minutes. The absorbance at 635 nm was measured on a Spark 10M instrument (TECAN). The percent (%) inhibition at each concentration of a compound was calculated relative to the OD value in the Max and Min control wells contained within each assay plate. The Max control wells contained cells and substrate as 0% inhibition, and the Min control wells only contained cells as 100% inhibition. The concentrations and percent inhibition values for a test compound are plotted and the concentration of a the compound required to achieve 50% inhibition (IC50) was determined with a four-parameter logistic dose response equation.

| SMILES | IC50 [1] | IC50 [2] |
| --- | --- | --- |
| O=P(O)(O)CP(=O)(O)OC[C@H]1O[C@@H](c2cnc3c(NC4CCCC4)ncnn23)[C@H](O)[C@@H]1O [Compound 1, (((((2R,3S,4R,5S)-5-(4-(cyclopentylamino)imidazo[2,1-f][1,2,4]triazin-7-yl)-3,4-dihydroxytetrahydrofuran-2-yl)methoxyxhydroxy)phosphoryl)methyl)phosphonic acid] | < 10 nM | < 1 nM |
| O=P(O)(O)CP(=O)(O)OC[C@H]1O[C@@H](c2cnc3c(NCc4ccccc4)ncnn23)[C@H](O)[C@@H]1O [Compound 2, (((((2R,3S,4R,1S)-5-(4-(benzylamino)imidazo[2,1-f][1,2,4]triazin-7-yl)-3,4-dihydroxytetrahydrofuran-2-yl)methoxy)(hydroxy)phosphoryl)methyl)phosphonic Acid] | 10 to 99 nM | 1 to 9.9 nM |
| O=P(O)(O)CP(=O)(O)OC[C@H]1O[C@@H](c2cnc3c(NC4CCCC4)nc(Cl)nn23)[C@H](O)[C@@H]1O [Compound 5, (((((2R,3S,4R,1S)-5-(2-chloro-4-(cyclopentylamino)imidazo[2,1-f][1,2,4]triazin-7-yl)-3,4-dihydroxytetrahydrofuran-2-yl)methoxy)(hydroxy)phosphoryl)methyl)phosphonic acid] | < 10 nM | < 1 nM |
| O=P(O)(O)CP(=O)(O)OC[C@H]1O[C@@H](c2cnc3c(NCc4ccccc4)nc(Cl)nn23)[C@H](O)[C@@H]1O [Compound 6, (((((2R,3S,4R,1S)-5-(4-(benzylamino)-2-chloroimidazo[2,1-f][1,2,4]triazin-7-yl)-3,4-dihydroxytetrahydrofuran-2-yl)methoxy)(hydroxy)phosphoryl)methyl)phosphonic Acid] | < 10 nM | < 1 nM |
| CN(c1nc(Cl)nn2c([C@@H]3O[C@H](COP(=O)(O)CP(=O)(O)O)[C@@H](O)[C@H]3O)cnc12)C1CCCC1 [Compound 8, (((((2R,3S,4R,1S)-5-(2-chloro-4-(cyclopentyl(methyl)amino)imidazo[2,1-f][1,2,4]triazin-7-yl)-3,4-dihydroxytetrahydrofuran-2-yl)methoxy)(hydroxy)phosphoryl)methyl)phosphonic acid] | < 10 nM | < 1 nM |
| O=P(O)(O)CP(=O)(O)OC[C@H]1O[C@@H](c2cnc3c(NC4CCc5ccccc54)nc(Cl)nn23)[C@H](O)[C@@H]1O (stereo partly drawn) [Compound 9, (((((2R,3S,4R,1S)-5-(2-chloro-4-((2,3-dihydro-1H-inden-1-yl)amino)imidazo[2,1-f][1,2,4]triazin-7-yl)-3,4-dihydroxytetrahydrofuran-2-yl)methoxy)(hydroxy)phosphoryl)methy)phosphonic acid] | < 10 nM | < 1 nM |
| O=P(O)(O)CP(=O)(O)OC[C@H]1O[C@@H](c2cnc3c(N4CC5CCCC5C4)nc(Cl)nn23)[C@H](O)[C@@H]1O (stereo partly drawn) [Compound 10, (((((2R,3S,4R,1S)-5-(2-chloro-4-(hexahydrocyclopenta[c]pyrrol-2(1H)-yl)imidazo[2,1-f][1,2,4]triazin-7-yl)-3,4-dihydroxytetrahydrofuran-2-yl)methoxy)(hydroxy)phosphoryl)methy)phosphonic acid] | < 10 nM | < 1 nM |
| O=P(O)(O)CP(=O)(O)OC[C@H]1O[C@@H](c2cnc3c(NCc4ccccc4Cl)nc(Cl)nn23)[C@H](O)[C@@H]1O [Compound 11, [({[(2R,3S,4R,5S)-5-(2-chloro-4-{[(2-chlorophenyl)methyl]amino}imidazo[2,1-f][1,2,4]triazin-7-yl)-3,4-dihydroxyoxolan-2-yl]methoxy}(hydroxy)phosphoryl)methyl]phosphonic acid] | < 10 nM | < 1 nM |
| O=P(O)(O)CP(=O)(O)OC[C@H]1O[C@@H](c2cnc3c(NCC4CCOC4)nc(Cl)nn23)[C@H](O)[C@@H]1O (stereo partly drawn) [Compound 12, (((((2R,3S,4R,1S)-5-(2-chloro-4-(((tetrahydrofuran-3-yl)methyl)amino)imidazo[2,1-f][1,2,4]triazin-7-yl)-3,4-dihydroxytetrahydrofuran-2-yl)methoxy)(hydroxy)phosphoryl)methyl) phosphonic Acid] | < 10 nM | < 1 nM |
| O=P(O)(O)CP(=O)(O)OC[C@H]1O[C@@H](c2cnc3c(NC4CCOC4)nc(Cl)nn23)[C@H](O)[C@@H]1O (stereo partly drawn) [Compound 14, [({[(2R,3S,4R,5S)-5-[2-chloro-4-(oxolan-3-ylamino)imidazo[2,1-f][1,2,4]triazin-7-yl]-3,4-dihydroxyoxolan-2-yl]methoxy}(hydroxy)phosphoryl)methyl]phosphonic acid] | < 10 nM | < 1 nM |
